Laboratory results reported in paper PMC11899342, “Novel Triazeneindole Antibiotics: Synthesis and Hit-to-Lead Optimization” (International Journal of Molecular Sciences, 2025).
Values after ≈ are worked out from the molar mass of the structure shown. Where two headings read alike, the source gives them in different places. Blank lines part the entries; values can stand above or below the compound they belong to.

Assays:
MRSA clinical isolates [1] = assay: MIC by broth microdilution against multidrug-resistant MRSA clinical isolates; assay type: cell-based, Staphylococcus aureus; conditions: for MIC Range Against 8 MRSA Strains: 8 multidrug-resistant MRSA clinical isolates, tested 0.125-1 mg/L; for MIC: Staphylococcus aureus, MRSA, read-out: MIC against 8 MRSA strains
Protocol: (§1) Clinical MRSA isolates with multidrug resistance were obtained from the collection of the Research Institute of Antimicrobial Chemotherapy, Smolensk State Medical Academy.
The MICs were determined using a broth microdilution method according to [42]. Briefly, serial dilutions of the tested compounds in 50 µL of Mueller Hinton broth (BD) were prepared in 96-well microplates. The antibiotics vancomycin and linezolid (Sigma-Aldrich, St. Louis, MO, USA) were used as a positive control. Bacterial suspensions of the tested MRSA strains were prepared in the Mueller Hinton broth (BD) with a concentration 1 × 10^6 CFU/mL, and then 50 µL aliquots were added to the prepared microplates. The final concentrations of the antibiotics in the wells were 1, 0.5, 0.25, and 0.125 mg/L, for the tested compounds, and 2 mg/L for vancomycin and linezolid. Negative control (lack of bacterial cells) and growth control (lack of compound) wells were included in all plates. The microplates were incubated at 37 °C for 18 h. The growth was assessed visually after incubation, and the MIC was assumed as the lowest compound concentration at which a noticeable growth of the microorganisms was inhibited (no visible growth). All experiments were conducted in triplicate.

[2] = Solubility in water by HPLC; assay type: physicochemical; conditions: water, kinetic from dmso stock
Protocol: The solubility of the compounds in water was assessed using HPLC analysis. Two 1.0 mg portions of the test compounds were dissolved in 10 μL of dimethyl sulfoxide; 1.0 mL of acetonitrile was added to one sample (standard), and 1.0 mL of water was added to the second sample (tested sample). Both vials were mixed in a shaker for 5 min, then centrifuged at 10,000 rpm for 5 min. The supernatants were collected and analyzed using Agilent 1290 Infinity (Agilent Technologies, Santa Clara, CA, USA) with a YMC-Triart C18 50 × 2.0 mm, 1.9 μm column. The concentration of the test compound in water was determined by comparing the peak areas of the standard (concentration 1.0 mg/mL) and the tested sample.

MRSA clinical isolates [3] = assay: Antibiotic susceptibility profile of MRSA clinical isolates (EUCAST breakpoints); assay type: cell-based, Staphylococcus aureus
Excerpt: as §1

[4] = read-out: Solubility in water, mass concentration
[5] = read-out: Solubility in water, molar concentration

MIC Range Against 8 MRSA Strains (MRSA clinical isolates [1]): >1 µg/mL | solubility at 5 min [2, 4]: 7.53 µg/mL | solubility at 5 min [2, 5]: 20 µM
SMILES: CCOC(=O)c1c(/N=N/N(C)Cc2ccccc2)c2cccnc2n1C [BX-SI020, Ethyl (E)-3-(3-benzyl-3-methyltriaz-1-en-1-yl)-1-methyl-1H-pyrrolo[2,3-b]pyridine-2-carboxylate]

SMILES: CN[C@H](CC(C)C)C(=O)N[C@H]1C(=O)N[C@@H](CC(N)=O)C(=O)N[C@H]2C(=O)N[C@H]3C(=O)N[C@H](C(=O)N[C@H](C(=O)O)c4cc(O)cc(O)c4-c4cc3ccc4O)[C@H](O)c3ccc(c(Cl)c3)Oc3cc2cc(c3O[C@@H]2O[C@H](CO)[C@@H](O)[C@H](O)[C@H]2O[C@H]2C[C@](C)(N)[C@H](O)[C@H](C)O2)Oc2ccc(cc2Cl)[C@H]1O [Vancomycin, vancomycin]
MIC (MRSA clinical isolates [1]): 2 µg/mL (≈ 1.38 µM) | Drug sensibility profile (MRSA clinical isolates [3]; MRSA strain 1): S | Drug sensibility profile (MRSA clinical isolates [3]; MRSA strain 2): S | Drug sensibility profile (MRSA clinical isolates [3]; MRSA strain 3): S | Drug sensibility profile (MRSA clinical isolates [3]; MRSA strain 4): S | Drug sensibility profile (MRSA clinical isolates [3]; MRSA strain 5): S | Drug sensibility profile (MRSA clinical isolates [3]; MRSA strain 6): S | Drug sensibility profile (MRSA clinical isolates [3]; MRSA strain 7): S | Drug sensibility profile (MRSA clinical isolates [3]; MRSA strain 8): S | Drug sensibility profile (MRSA clinical isolates [3]; MRSA strain 9): S | Drug sensibility profile (MRSA clinical isolates [3]; MRSA strain 10): S | Drug sensibility profile (MRSA clinical isolates [3]; MRSA strain 12): S | Drug sensibility profile (MRSA clinical isolates [3]; MRSA strain 13): S | Drug sensibility profile (MRSA clinical isolates [3]; MRSA strain 14): S | Drug sensibility profile (MRSA clinical isolates [3]; MRSA strain 15): S | Drug sensibility profile (MRSA clinical isolates [3]; MRSA strain 16): S | Drug sensibility profile (MRSA clinical isolates [3]; MRSA strain 17): S | Drug sensibility profile (MRSA clinical isolates [3]; MRSA strain 18): S | Drug sensibility profile (MRSA clinical isolates [3]; MRSA strain 21): S | Drug sensibility profile (MRSA clinical isolates [3]; MRSA strain 23): S | Drug sensibility profile (MRSA clinical isolates [3]; MRSA strain 24): S | Drug sensibility profile (MRSA clinical isolates [3]; MRSA strain 25): S | Drug sensibility profile (MRSA clinical isolates [3]; MRSA strain 26): S | Drug sensibility profile (MRSA clinical isolates [3]; MRSA strain 27): S | Drug sensibility profile (MRSA clinical isolates [3]; MRSA strain 28): S | Drug sensibility profile (MRSA clinical isolates [3]; MRSA strain 29): S | Drug sensibility profile (MRSA clinical isolates [3]; MRSA strain 30): S | Drug sensibility profile (MRSA clinical isolates [3]; MRSA strain 31): S | Drug sensibility profile (MRSA clinical isolates [3]; MRSA strain 34): S | Drug sensibility profile (MRSA clinical isolates [3]; MRSA strain 35): S | Drug sensibility profile (MRSA clinical isolates [3]; MRSA strain 36): S | Drug sensibility profile (MRSA clinical isolates [3]; MRSA strain 40): S | Drug sensibility profile (MRSA clinical isolates [3]; MRSA strain 41): S | Drug sensibility profile (MRSA clinical isolates [3]; MRSA strain 42): S | Drug sensibility profile (MRSA clinical isolates [3]; MRSA strain 43): S | Drug sensibility profile (MRSA clinical isolates [3]; MRSA strain 44): S | Drug sensibility profile (MRSA clinical isolates [3]; MRSA strain 45): S | Drug sensibility profile (MRSA clinical isolates [3]; MRSA strain 46): S | Drug sensibility profile (MRSA clinical isolates [3]; MRSA strain 48): S | Drug sensibility profile (MRSA clinical isolates [3]; MRSA strain 49): S | Drug sensibility profile (MRSA clinical isolates [3]; MRSA strain 50): S | Drug sensibility profile (MRSA clinical isolates [3]; MRSA strain 51): S

MIC Range Against 8 MRSA Strains (MRSA clinical isolates [1]): >1 µg/mL | solubility at 5 min [2, 4]: 12.5 µg/mL | solubility at 5 min [2, 5]: 10 µM
SMILES: CCOC(=O)c1c(/N=N/N2CCN(Cc3ccccc3)CC2)c2cccnc2n1C [BX-SI021, Ethyl (E)-3-((4-benzylpiperazin-1-yl)diazenyl)-1-methyl-1H-pyrrolo[2,3-b]pyridine-2-carboxylate]

MIC Range Against 8 MRSA Strains (MRSA clinical isolates [1]): >1 µg/mL | solubility at 5 min [2, 4]: 10 µg/mL | solubility at 5 min [2, 5]: 30 µM
SMILES: CCOC(=O)c1[nH]c2cc(F)ccc2c1/N=N/N(CC)CC [BX-SI036, Ethyl (E)-3-(3,3-diethyltriaz-1-en-1-yl)-6-fluoro-1H-indole-2-carboxylate]

MIC Range Against 8 MRSA Strains (MRSA clinical isolates [1]): >1 µg/mL | solubility at 5 min [2, 4]: 927 µg/mL | solubility at 5 min [2, 5]: 2780 µM
SMILES: CCOC(=O)c1c(/N=N/N(C)CCN(C)C)c2cccnc2n1C [BX-SI027, Ethyl (E)-3-(3-(2-(dimethylamino)ethyl)-3-methyltriaz-1-en-1-yl)-1-methyl-1H-pyrrolo[2,3-b]pyridine-2-carboxylate]

MIC Range Against 8 MRSA Strains (MRSA clinical isolates [1]): >1 µg/mL | solubility at 5 min [2, 4]: 0.383 µg/mL | solubility at 5 min [2, 5]: 1 µM
SMILES: CCOC(=O)c1[nH]c2cc(F)ccc2c1/N=N/N1CCN(Cc2ccccc2)CC1 [BX-SI038, Ethyl (E)-3-((4-benzylpiperazin-1-yl)diazenyl)-6-fluoro-1H-indole-2-carboxylate]

MIC Range Against 8 MRSA Strains (MRSA clinical isolates [1]): >1 µg/mL | solubility at 5 min [2, 4]: 88.2 µg/mL | solubility at 5 min [2, 5]: 290 µM
SMILES: CCOC(=O)c1c(/N=N/N(CC)CC)c2cccnc2n1C [BX-SI019, Ethyl (E)-3-(3,3-diethyltriaz-1-en-1-yl)-1-methyl-1H-pyrrolo[2,3-b]pyridine-2-carboxylate]

MIC (MRSA clinical isolates [1]; Figure 6, MRSA strain 2): 2 µg/mL (≈ 5.93 µM) | MIC (MRSA clinical isolates [1]; Figure 6, MRSA strain 7): 2 µg/mL (≈ 5.93 µM) | MIC (MRSA clinical isolates [1]; Figure 6, MRSA strain 8): 2 µg/mL (≈ 5.93 µM) | MIC (MRSA clinical isolates [1]; Figure 6, MRSA strain 9): 2 µg/mL (≈ 5.93 µM) | MIC (MRSA clinical isolates [1]; Figure 6, MRSA strain 13): 2 µg/mL (≈ 5.93 µM) | MIC (MRSA clinical isolates [1]; Figure 6, MRSA strain 21): 2 µg/mL (≈ 5.93 µM) | MIC (MRSA clinical isolates [1]; Figure 6, MRSA strain 48): 2 µg/mL (≈ 5.93 µM) | MIC (MRSA clinical isolates [1]; Figure 6, MRSA strain 50): 2 µg/mL (≈ 5.93 µM)
SMILES: CC(=O)NC[C@H]1CN(c2ccc(N3CCOCC3)c(F)c2)C(=O)O1 [Linezolid, linezolid]
Drug sensibility profile (MRSA clinical isolates [3]; MRSA strain 1): S | Drug sensibility profile (MRSA clinical isolates [3]; MRSA strain 2): S | Drug sensibility profile (MRSA clinical isolates [3]; MRSA strain 3): S | Drug sensibility profile (MRSA clinical isolates [3]; MRSA strain 4): S | Drug sensibility profile (MRSA clinical isolates [3]; MRSA strain 5): S | Drug sensibility profile (MRSA clinical isolates [3]; MRSA strain 6): S | Drug sensibility profile (MRSA clinical isolates [3]; MRSA strain 7): S | Drug sensibility profile (MRSA clinical isolates [3]; MRSA strain 8): S | Drug sensibility profile (MRSA clinical isolates [3]; MRSA strain 9): S | Drug sensibility profile (MRSA clinical isolates [3]; MRSA strain 10): S | Drug sensibility profile (MRSA clinical isolates [3]; MRSA strain 12): S | Drug sensibility profile (MRSA clinical isolates [3]; MRSA strain 13): S | Drug sensibility profile (MRSA clinical isolates [3]; MRSA strain 14): S | Drug sensibility profile (MRSA clinical isolates [3]; MRSA strain 15): S | Drug sensibility profile (MRSA clinical isolates [3]; MRSA strain 16): S | Drug sensibility profile (MRSA clinical isolates [3]; MRSA strain 17): S | Drug sensibility profile (MRSA clinical isolates [3]; MRSA strain 18): S | Drug sensibility profile (MRSA clinical isolates [3]; MRSA strain 21): S | Drug sensibility profile (MRSA clinical isolates [3]; MRSA strain 23): S | Drug sensibility profile (MRSA clinical isolates [3]; MRSA strain 24): S | Drug sensibility profile (MRSA clinical isolates [3]; MRSA strain 25): S | Drug sensibility profile (MRSA clinical isolates [3]; MRSA strain 26): S | Drug sensibility profile (MRSA clinical isolates [3]; MRSA strain 27): S | Drug sensibility profile (MRSA clinical isolates [3]; MRSA strain 28): S | Drug sensibility profile (MRSA clinical isolates [3]; MRSA strain 29): S | Drug sensibility profile (MRSA clinical isolates [3]; MRSA strain 30): S | Drug sensibility profile (MRSA clinical isolates [3]; MRSA strain 31): S | Drug sensibility profile (MRSA clinical isolates [3]; MRSA strain 34): S | Drug sensibility profile (MRSA clinical isolates [3]; MRSA strain 35): S | Drug sensibility profile (MRSA clinical isolates [3]; MRSA strain 36): S | Drug sensibility profile (MRSA clinical isolates [3]; MRSA strain 40): S | Drug sensibility profile (MRSA clinical isolates [3]; MRSA strain 41): S | Drug sensibility profile (MRSA clinical isolates [3]; MRSA strain 42): S | Drug sensibility profile (MRSA clinical isolates [3]; MRSA strain 43): S | Drug sensibility profile (MRSA clinical isolates [3]; MRSA strain 44): S | Drug sensibility profile (MRSA clinical isolates [3]; MRSA strain 45): S | Drug sensibility profile (MRSA clinical isolates [3]; MRSA strain 46): S | Drug sensibility profile (MRSA clinical isolates [3]; MRSA strain 48): S | Drug sensibility profile (MRSA clinical isolates [3]; MRSA strain 49): S | Drug sensibility profile (MRSA clinical isolates [3]; MRSA strain 50): S | Drug sensibility profile (MRSA clinical isolates [3]; MRSA strain 51): S

MIC Range Against 8 MRSA Strains (MRSA clinical isolates [1]): 1 µg/mL (≈ 2.82 µM) | solubility at 5 min [2, 4]: 18.4 µg/mL | solubility at 5 min [2, 5]: 50 µM
SMILES: CCOC(=O)c1[nH]c2cc(F)ccc2c1/N=N/N(C)Cc1ccccc1 [BX-SI037, Ethyl (E)-3-(3-benzyl-3-methyltriaz-1-en-1-yl)-6-fluoro-1H-indole-2-carboxylate]
